Results: patent publication US9113629B2, “4-amino-6-(4-substituted-phenyl)-picolinates and 6-amino-2-(4-substituted-phenyl)-pyrimidine-4-carboxylates and their use as herbicides” (DOW AGROSCIENCES LLC, priority 2013, dated 2015)
Like-named read-outs stand apart in the source and are kept apart here.

Key:
[1] = system: Key Grass and Sedge Weeds as well as Grass Crops; test: Post-emergent Test II herbicidal activity (Table 6); format: in vivo; settings: post-emergence, 336 h; for pest or weed control at 70 g/ha: 70 g ai/ha; for pest or weed control at 140 g/ha: 140 g ai/ha
Procedure, shortened: (§1)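 Greenhouse post-emergent assay: seedlings (first/second true leaf) in Metro-Mix 360 were sprayed at 187 L/ha at a top rate plus twofold dilutions down to 1/16×; solvent-blank controls were included. Percent visual injury was read at 14 d.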

[2] = system: Key Broadleaf Weed and Crop Species; test: Post-emergent Test II herbicidal activity (Table 5); format: in vivo; settings: post-emergence, 336 h, 14 days after application; for pest or weed control at 70 g/ha: application rate 70 g ai/ha; for pest or weed control at 140 g/ha: application rate 140 g ai/ha
Procedure, shortened: as §1

[3] = CYPES: yellow nutsedge (Cyperus esculentus), read-out: Visual Growth Reduction (%) 14 Days After Application, CYPES
[4] = DIGSA: crabgrass (Digitaria sanguinalis), read-out: Visual Growth Reduction (%) 14 Days After Application, DIGSA
[5] = ECHCG: barnyardgrass (Echinochloa crus-galli), read-out: Visual Growth Reduction (%) 14 Days After Application, ECHCG
[6] = ORYSA: rice (Oryza sativa), crop, read-out: Visual Growth Reduction (%) 14 Days After Application, ORYSA
[7] = SETFA: giant foxtail (Setaria faberi), read-out: Visual Growth Reduction (%) 14 Days After Application, SETFA
[8] = SORVU: grain sorghum (Sorghum vulgare), read-out: Visual Growth Reduction (%) 14 Days After Application, SORVU
[9] = TRZSS (wheat, Triticum aestivum), crop, read-out: Visual Growth Reduction (%) 14 Days After Application, TRZSS
[10] = ZEAMX: maize, corn (Zea mays), crop, read-out: Visual Growth Reduction (%) 14 Days After Application, ZEAMX
[11] = ABUTH: velvetleaf (Abutilon theophrasti), read-out: Visual Growth Reduction (%) 14 Days After Application, ABUTH
[12] = AMARE: redroot pigweed (Amaranthus retroflexus), read-out: Visual Growth Reduction (%) 14 Days After Application, AMARE
[13] = BRSNN: oilseed-rape, canola (Brassica napus), read-out: Visual Growth Reduction (%) 14 Days After Application, BRSNN
[14] = CHEAL: lambsquarters (Chenopodium album), read-out: Visual Growth Reduction (%) 14 Days After Application, CHEAL
[15] = EPHHL: wild poinsettia (Euphorbia heterophylla), read-out: Visual Growth Reduction (%) 14 Days After Application, EPHHL
[16] = HELAN: sunflower (Helianthus annuus), read-out: Visual Growth Reduction (%) 14 Days After Application, HELAN
[17] = VIOTR: wild pansy (Viola tricolor), read-out: Visual Growth Reduction (%) 14 Days After Application, VIOTR

In the case of Nc1c(F)c(-c2ccc(Cl)c(F)c2)nc(C(=O)O)c1Cl [Compound 217], the pest or weed control at 70 g/ha [1, 3] is reported as 85 to 94%, the pest or weed control at 140 g/ha [1, 3] is reported as 85 to 94% and the pest or weed control at 70 g/ha [1, 4] is reported as 85 to 94%. The pest or weed control at 140 g/ha [1, 4] was 85 to 94%, the pest or weed control at 70 g/ha [1, 5] was 95 to 100% and the pest or weed control at 140 g/ha [1, 5] was 95 to 100%. The pest or weed control at 70 g/ha [1, 6] was 60 to 74%, the pest or weed control at 140 g/ha [1, 6] was 75 to 84% and the pest or weed control at 70 g/ha [1, 7] was 95 to 100%. It also gave a pest or weed control at 140 g/ha [1, 7] of 95 to 100%, a pest or weed control at 70 g/ha [1, 8] of 85 to 94% and a pest or weed control at 140 g/ha [1, 8] of 85 to 94%. It also gave a pest or weed control at 70 g/ha [1, 9] of 75 to 84%, a pest or weed control at 140 g/ha [1, 9] of 75 to 84% and a pest or weed control at 70 g/ha [1, 10] of 85 to 94%. For the same compound, the pest or weed control at 140 g/ha [1, 10] was 95 to 100%, the pest or weed control at 70 g/ha [2, 11] was 95 to 100% and the pest or weed control at 140 g/ha [2, 11] was 95 to 100%. The pest or weed control at 70 g/ha [2, 12] was 95 to 100%, the pest or weed control at 140 g/ha [2, 12] was 95 to 100% and the pest or weed control at 70 g/ha [2, 13] was 85 to 94%. The pest or weed control at 140 g/ha [2, 13] was 95 to 100%, the pest or weed control at 70 g/ha [2, 14] was 95 to 100% and the pest or weed control at 140 g/ha [2, 14] was 95 to 100%. The pest or weed control at 70 g/ha [2, 15] was 95 to 100%, the pest or weed control at 140 g/ha [2, 15] was 95 to 100% and the pest or weed control at 70 g/ha [2, 16] was 95 to 100%. The pest or weed control at 140 g/ha [2, 16] was 95 to 100%, the pest or weed control at 70 g/ha [2, 17] was 95 to 100% and the pest or weed control at 140 g/ha [2, 17] was 95 to 100%. It also gave a melting point of 159 to 161 °C.
